# Assay results: the NIST ThermoML archive (doi:10.1016/j.fluid.2008.06.007)
# Numbers after ± are expanded uncertainties.
# Settings: Liquid, Vibrating tube method
smiles,measurement,setting,value
CCCCCO [pentan-1-ol],mass density,"353.15 K, 100 kPa",768.1 ± 1.1 kg/m3
same,mass density,"353.15 K, 10000 kPa",777.3 ± 1.1 kg/m3
same,mass density,"353.15 K, 20000 kPa",785.6 ± 1.1 kg/m3
same,mass density,"353.15 K, 30000 kPa",792.9 ± 1.1 kg/m3
same,mass density,"353.15 K, 40000 kPa",799.8 ± 1.1 kg/m3
same,mass density,"353.15 K, 50000 kPa",806.1 ± 1.1 kg/m3
same,mass density,"353.15 K, 60000 kPa",812 ± 1.2 kg/m3
same,mass density,"353.15 K, 70000 kPa",817.6 ± 1.2 kg/m3
same,mass density,"353.15 K, 80000 kPa",822.8 ± 1.2 kg/m3
same,mass density,"353.15 K, 90000 kPa",827.8 ± 1.2 kg/m3
same,mass density,"353.15 K, 100000 kPa",832.6 ± 1.2 kg/m3
same,mass density,"353.15 K, 110000 kPa",837.2 ± 1.3 kg/m3
same,mass density,"353.15 K, 120000 kPa",841.6 ± 1.3 kg/m3
same,mass density,"353.15 K, 130000 kPa",845.8 ± 1.3 kg/m3
same,mass density,"353.15 K, 140000 kPa",849.7 ± 1.3 kg/m3
same,mass density,"363.15 K, 100 kPa",759.4 ± 1.1 kg/m3
same,mass density,"363.15 K, 10000 kPa",769.2 ± 1.1 kg/m3
same,mass density,"363.15 K, 20000 kPa",777.7 ± 1.1 kg/m3
same,mass density,"363.15 K, 30000 kPa",785.6 ± 1.1 kg/m3
same,mass density,"363.15 K, 40000 kPa",792.6 ± 1.1 kg/m3
same,mass density,"363.15 K, 50000 kPa",799.2 ± 1.1 kg/m3
same,mass density,"363.15 K, 60000 kPa",805.5 ± 1.2 kg/m3
same,mass density,"363.15 K, 70000 kPa",811.3 ± 1.2 kg/m3
same,mass density,"363.15 K, 80000 kPa",816.7 ± 1.2 kg/m3
same,mass density,"363.15 K, 90000 kPa",821.8 ± 1.2 kg/m3
same,mass density,"363.15 K, 100000 kPa",826.8 ± 1.3 kg/m3
same,mass density,"363.15 K, 110000 kPa",831.3 ± 1.3 kg/m3
same,mass density,"363.15 K, 120000 kPa",835.8 ± 1.3 kg/m3
same,mass density,"363.15 K, 130000 kPa",840.1 ± 1.3 kg/m3
same,mass density,"363.15 K, 140000 kPa",844.2 ± 1.3 kg/m3
same,mass density,"373.15 K, 100 kPa",750.7 ± 1.1 kg/m3
same,mass density,"373.15 K, 10000 kPa",761.2 ± 1.1 kg/m3
same,mass density,"373.15 K, 20000 kPa",770.3 ± 1.1 kg/m3
same,mass density,"373.15 K, 30000 kPa",778.2 ± 1.1 kg/m3
same,mass density,"373.15 K, 40000 kPa",785.7 ± 1.1 kg/m3
same,mass density,"373.15 K, 50000 kPa",792.5 ± 1.2 kg/m3
same,mass density,"373.15 K, 60000 kPa",798.9 ± 1.2 kg/m3
same,mass density,"373.15 K, 70000 kPa",804.9 ± 1.2 kg/m3
same,mass density,"373.15 K, 80000 kPa",810.5 ± 1.2 kg/m3
same,mass density,"373.15 K, 90000 kPa",815.8 ± 1.2 kg/m3
same,mass density,"373.15 K, 100000 kPa",820.9 ± 1.3 kg/m3
same,mass density,"373.15 K, 110000 kPa",825.7 ± 1.3 kg/m3
same,mass density,"373.15 K, 120000 kPa",830.3 ± 1.3 kg/m3
same,mass density,"373.15 K, 130000 kPa",834.7 ± 1.3 kg/m3
same,mass density,"373.15 K, 140000 kPa",839 ± 1.4 kg/m3
same,mass density,"383.15 K, 100 kPa",741.5 ± 1.1 kg/m3
same,mass density,"383.15 K, 10000 kPa",752.3 ± 1.1 kg/m3
same,mass density,"383.15 K, 20000 kPa",761.9 ± 1.1 kg/m3
same,mass density,"383.15 K, 30000 kPa",770.7 ± 1.1 kg/m3
same,mass density,"383.15 K, 40000 kPa",778.5 ± 1.1 kg/m3
same,mass density,"383.15 K, 50000 kPa",785.7 ± 1.2 kg/m3
same,mass density,"383.15 K, 60000 kPa",792.3 ± 1.2 kg/m3
same,mass density,"383.15 K, 70000 kPa",798.5 ± 1.2 kg/m3
same,mass density,"383.15 K, 80000 kPa",804.3 ± 1.2 kg/m3
same,mass density,"383.15 K, 90000 kPa",809.7 ± 1.3 kg/m3
same,mass density,"383.15 K, 100000 kPa",815 ± 1.3 kg/m3
same,mass density,"383.15 K, 110000 kPa",819.9 ± 1.3 kg/m3
same,mass density,"383.15 K, 120000 kPa",824.7 ± 1.3 kg/m3
same,mass density,"383.15 K, 130000 kPa",829.2 ± 1.4 kg/m3
same,mass density,"383.15 K, 140000 kPa",833.5 ± 1.4 kg/m3
same,mass density,"393.15 K, 100 kPa",731.7 ± 1.1 kg/m3
same,mass density,"393.15 K, 10000 kPa",743.4 ± 1.1 kg/m3
same,mass density,"393.15 K, 20000 kPa",753.7 ± 1.1 kg/m3
same,mass density,"393.15 K, 30000 kPa",762.8 ± 1.1 kg/m3
same,mass density,"393.15 K, 40000 kPa",771 ± 1.1 kg/m3
same,mass density,"393.15 K, 50000 kPa",778.6 ± 1.2 kg/m3
same,mass density,"393.15 K, 60000 kPa",785.6 ± 1.2 kg/m3
same,mass density,"393.15 K, 70000 kPa",792 ± 1.2 kg/m3
same,mass density,"393.15 K, 80000 kPa",798.1 ± 1.2 kg/m3
same,mass density,"393.15 K, 90000 kPa",803.7 ± 1.3 kg/m3
same,mass density,"393.15 K, 100000 kPa",809.1 ± 1.3 kg/m3
same,mass density,"393.15 K, 110000 kPa",814.2 ± 1.3 kg/m3
same,mass density,"393.15 K, 120000 kPa",819.1 ± 1.4 kg/m3
same,mass density,"393.15 K, 130000 kPa",823.7 ± 1.4 kg/m3
same,mass density,"393.15 K, 140000 kPa",828.1 ± 1.4 kg/m3
same,mass density,"403.15 K, 100 kPa",721.7 ± 1.1 kg/m3
same,mass density,"403.15 K, 10000 kPa",734.4 ± 1.1 kg/m3
same,mass density,"403.15 K, 20000 kPa",745.3 ± 1.1 kg/m3
same,mass density,"403.15 K, 30000 kPa",754.9 ± 1.1 kg/m3
same,mass density,"403.15 K, 40000 kPa",763.4 ± 1.2 kg/m3
same,mass density,"403.15 K, 50000 kPa",771.3 ± 1.2 kg/m3
same,mass density,"403.15 K, 60000 kPa",778.4 ± 1.2 kg/m3
same,mass density,"403.15 K, 70000 kPa",785.1 ± 1.2 kg/m3
same,mass density,"403.15 K, 80000 kPa",791.3 ± 1.3 kg/m3
same,mass density,"403.15 K, 90000 kPa",797.2 ± 1.3 kg/m3
same,mass density,"403.15 K, 100000 kPa",802.8 ± 1.3 kg/m3
same,mass density,"403.15 K, 110000 kPa",808 ± 1.3 kg/m3
same,mass density,"403.15 K, 120000 kPa",813 ± 1.4 kg/m3
same,mass density,"403.15 K, 130000 kPa",817.8 ± 1.4 kg/m3
same,mass density,"403.15 K, 140000 kPa",822.3 ± 1.4 kg/m3
